According to patent US7265126B2, “Diaza-spiropiperidine derivatives” (Hoffmann-La Roche Inc., priority 2004, dated 2007):
Values joined by “and” are separate entries in the source; they are usually repeats but may differ in a detail not shown here. Equal values may be shown once. Read-outs that look alike come from different tables or passages of the source.

Assays:
[1] = target: T1, mGlyT-1b (Mus musculus, UniProt P28571); test: Glycine uptake inhibition assay (mGlyT-1b); assay type: cell-based
T1 construct: host or cells: Flp-in-CHO
T1 sequence (P28571 1-651 isoform P28571-2): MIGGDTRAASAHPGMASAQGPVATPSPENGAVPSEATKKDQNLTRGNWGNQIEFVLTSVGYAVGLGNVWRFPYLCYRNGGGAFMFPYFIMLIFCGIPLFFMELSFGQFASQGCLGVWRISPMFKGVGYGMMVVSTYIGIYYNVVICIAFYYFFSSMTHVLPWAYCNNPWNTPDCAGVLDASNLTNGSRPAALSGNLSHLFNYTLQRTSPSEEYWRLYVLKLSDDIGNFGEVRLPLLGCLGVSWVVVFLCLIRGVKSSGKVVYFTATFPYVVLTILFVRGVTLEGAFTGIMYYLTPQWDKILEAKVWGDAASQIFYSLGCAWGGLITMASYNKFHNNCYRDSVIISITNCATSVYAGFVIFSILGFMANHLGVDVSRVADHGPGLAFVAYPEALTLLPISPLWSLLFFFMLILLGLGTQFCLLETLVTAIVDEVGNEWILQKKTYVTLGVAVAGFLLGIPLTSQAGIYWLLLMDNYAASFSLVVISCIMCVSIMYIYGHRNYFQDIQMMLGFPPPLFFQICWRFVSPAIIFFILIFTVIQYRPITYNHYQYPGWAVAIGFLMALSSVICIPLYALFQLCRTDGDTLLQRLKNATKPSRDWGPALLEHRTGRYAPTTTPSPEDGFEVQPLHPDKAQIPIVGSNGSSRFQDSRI
Method: DMEM complete medium: Nutrient mixture F-12 (Gibco Life-technologies), fetal bovine serum (FBS) 5%, (Gibco life technologies), Penicillin/Streptomycinl % (Gibco life technologies), Hygromycin 0.6 mg/ml (Gibco life technologies), Glutamine 1 mM Gibco life technologies)
Uptake buffer (UB): 150 mM NaCl, 10 mM Hepes-Tris, pH 7.4, 1 mM CaCl2, 2.5 mM KCl, 2.5 mM MgSO4, 10 mM (+) D-glucose.
Flp-in™-CHO (Invitrogen Cat no. R758-07)cells stably transfected with mGlyT1b cDNA.
Glycine Uptake Inhibition Assay (mGlyT-1b)

[2] = target: T2, GlyT-1 (Homo sapiens, UniProt P48067); test: GlyT-1 inhibition, human; assay type: cell-based
T2 sequence (P48067 1-706): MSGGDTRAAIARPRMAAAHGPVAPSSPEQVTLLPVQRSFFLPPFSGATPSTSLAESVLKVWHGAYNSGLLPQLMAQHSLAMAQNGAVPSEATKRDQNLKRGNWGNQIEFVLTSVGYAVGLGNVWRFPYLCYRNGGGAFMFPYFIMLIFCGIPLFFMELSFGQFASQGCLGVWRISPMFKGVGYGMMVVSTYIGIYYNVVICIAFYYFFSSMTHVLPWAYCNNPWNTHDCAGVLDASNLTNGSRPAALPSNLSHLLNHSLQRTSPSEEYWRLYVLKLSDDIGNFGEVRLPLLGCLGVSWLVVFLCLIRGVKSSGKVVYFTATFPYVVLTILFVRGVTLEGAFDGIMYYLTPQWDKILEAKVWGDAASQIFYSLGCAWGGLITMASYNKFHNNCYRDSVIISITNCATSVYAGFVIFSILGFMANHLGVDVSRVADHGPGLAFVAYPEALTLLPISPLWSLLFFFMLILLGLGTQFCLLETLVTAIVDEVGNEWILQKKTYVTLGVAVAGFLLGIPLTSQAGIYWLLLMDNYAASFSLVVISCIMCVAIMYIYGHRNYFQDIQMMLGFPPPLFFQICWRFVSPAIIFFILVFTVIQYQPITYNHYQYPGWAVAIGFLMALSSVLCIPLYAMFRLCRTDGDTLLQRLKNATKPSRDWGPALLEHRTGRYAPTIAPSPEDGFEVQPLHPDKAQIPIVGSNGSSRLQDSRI
Method: On day 1 mammalian cells, (Flp-in™-CHO), transfected with mGlyT-1b cDNA , were plated at the density of 40,000 cells/well in complete F-12 medium, without hygromycin in 96-well culture plates. On day 2, the medium was aspirated and the cells were washed twice with uptake buffer (UB). The cells were then incubated for 20 min at 22° C. with either (i) no potential competitor, (ii) 10 mM non-radioactive glycine , (iii) a concentration of a potential inhibitor. […] A solution was then immediately added containing [^3H]-glycine 60 nM (11-16 Ci/mmol) and 25 µM non-radioactive glycine. The plates were incubated with gentle shaking and the reaction was stopped by aspiration of the mixture and washing (three times) with ice-cold US. The cells were lysed with scintillation liquid, shaken 3 hours and the radioactivity in the cells was coounted using a scintillation counter.

Compound: O=C1NCC(c2ccc(F)cc2)C12CCN(C1(c3ccsc3)CCCCC1)CC2 (racemic) [Example 38, rac-4-(4-Fluoro-phenyl)-8-(1-thiophen-3-yl-cyclohexyl)-2,8-diaza-spiro[4.5]decan-1-one]
- IC50 ([1]; GlyT-1 Enant. Mouse/human): 99 nM and 213 nM
- IC50 ([1]; GlyT-1 Racemat Mouse/human): 99 nM

Compound: Cc1ccc(C2CNC(=O)C23CCN(C2(c4ccc(F)cc4)CCCCC2)CC3)cc1 (racemic) [Example 52, rac 8-[1-(4-Fluoro-phenyl)-cyclohexyl]4-p-tolyl-2,8-diaza-spiro [4.5]decan-1-one]
- IC50 ([2]; GlyT-1 Racemat Mouse/human): 73 nM

Compound: O=C1NCC(c2ccc(F)cc2)C12CCN(C1(c3ccc(F)cc3)CCCCCC1)CC2 (racemic) [Example 50, rac4-(4-Fluoro-phenyl)-8-[1-(4-fluoro-phenyl)-cycloheptyl]-2,8-diaza-spiro[4.5]decan-1-one]
- IC50 [1]: 81 nM
- IC50 ([1]; second-listed enantiomer, mouse value (before the slash), read-out: GlyT-1 Enant. Mouse/human): 153 nM
- IC50 ([2]; racemate, human value (after the slash), read-out: GlyT-1 Racemat Mouse/human): 132 nM
